Measured values published in patent US9526785B2, “Pharmaceuticals for oral delivery” (Enteris BioPharma, Inc., priority 2013, dated 2016).
Where two headings read alike, the source gives them in different places.

Test: Tigecycline plasma PK and % F after PO enteric-coated capsule in dogs
Format: in vivo, Beagle dogs
Settings: for concentration at 0 min: Time (min) 0.0; for concentration at 0.3 min: Time (min) 0.3; for concentration at 0.7 min: Time (min) 0.7; for concentration at 24 min: Time (min) 24.0; for Predicted AUC(0-t), % Difference / Predicted Mean Cmax, % Difference: observed vs predicted from 15 mg results; for Predicted AUC(0-t) / Predicted Mean Cmax: predicted from 15 mg results
Procedure: Adult beagle dogs weighing approximately 9 to 15 kg were used in the study. […] Room temperature was set to be maintained between approximately 20±5° C. Relative humidity was monitored but not controlled.
TEKLAD™ Certified Canine Diet was provided once daily in amounts (˜400 grams) appropriate for the size and age of the animals. Tap water was available ad libitum via automatic watering device or water bowls.
Oral dosing of enteric-coated capsules was accomplished by administering them to the back of the dog's mouth, followed by a chase of 5 mL water to ensure swallowing.
Water was provided ad libitum. […] Subsequently, each group of animals was dosed based on the protocol, i.e. either IV, or PO by capsule.
Minocycline (VWR international) was used as an internal standard. Sample processing/clean-up of plasma samples was carried out offline by protein precipitation with acidified acetonitrile using 0.5% trifluoroacetic acid (TFA).
The HPLC system consisted of Shimadzu SIL-HTc HPLC system equipped with dual Shimadzu LC-10ADvp isopumps, a Shimadzu CTO-10ASvp column temperature controller and a Shimadzu SPD-10Avp variable wavelength detector. […] Mobile phase A consisted of 23 mM phosphate buffer pH 2.5 with 4 mM 1-octanesulfonic acid, while mobile phase B consisting of 90% acetonitrile, 10% water, with 2 mM 1-octanesulfonic acid. […] The total runtime was 18 minutes per sample. The mobile phase flow rate was 1.2 mL/min. Detection was performed using the SPD-10Avp variable wavelength detector set at 350 nm, with a sensitivity of 0.001 aufs.
The samples were then centrifuged under refrigeration at 13 k rpm for 5 minutes. The supernatant was taken and the liquid removed to dryness under nitrogen in a turbovap. The dried extract was reconstituted in 60 μL of mobile phase A and the suspension was further centrifuged at 5 k rpm for 5 minutes to pellet any insoluble matter. The resulting supernatant was then injected onto the LC.
The unknown concentration in dog plasma samples was determined by interpolation of the peak area ratios of analyte:internal standard versus the ratio of their nominal concentrations into the regression line obtained from calibration standards spiked in pooled dog plasma. No regression weighting was used for the calculations. […] The calibration curve covered the range of 0.05 μg/mL to 5 μg/mL. […]
The capsules were enterically coated using a standard preclinical protocol to 10% weight gain. Two studies were conducted.

[1] = female, beagle, dog, plasma, po, 45 mg, Tigecycline Plasma Concentration, PO 45 mg enteric-coated capsule with 500 mg CA and 100 mg LLC, SC430, individual dogs
[2] = female, beagle, dog, plasma, po, 45 mg, Tigecycline Plasma Concentration, PO 45 mg enteric-coated capsule with 500 mg CA and 100 mg LLC, SC430, mean

## CN(C)c1cc(NC(=O)CNC(C)(C)C)c(O)c2c1C[C@H]1C[C@H]3[C@H](N(C)C)C(O)=C(C(N)=O)C(=O)[C@@]3(O)C(O)=C1C2=O [Tigecycline]
female, beagle, dog, plasma, po, 45 mg, 45 mg Formulated (500 mg CA, 100 mg LLC) enteric coated capsule, Study 2 (SC430), mean (% CV), read-out: Tmax (converted)
  Tmax: 1.67 h
female, beagle, dog, plasma, po, 45 mg, PO 45 mg enteric-coated capsule with 500 mg CA and 100 mg LLC (SC430), read-out: AUC(0-t), mean
  AUC(0-t): 574 ng·h/mL
female, beagle, dog, plasma, po, 45 mg, PO 45 mg enteric-coated capsule with 500 mg CA and 100 mg LLC (SC430), read-out: Cmax, mean
  Cmax: 177 ng/mL
female, beagle, dog, plasma, po, 45 mg, PO 45 mg enteric-coated capsule with 500 mg CA and 100 mg LLC (SC430), read-out: absolute % F, mean
  bioavailability: 15.5%
female, beagle, dog, plasma, po, 45 mg, PO 45 mg enteric-coated capsule with 500 mg CA and 100 mg LLC ([…]), SC430, mean, read-out: AUC(0-t)
  AUC(0-t): 574 ng·h/mL
female, beagle, dog, plasma, po, 45 mg, PO 45 mg enteric-coated capsule with 500 mg CA and 100 mg LLC ([…]), SC430, mean, read-out: Cmax
  Cmax: 177 ng/mL
female, beagle, dog, plasma, po, 45 mg, PO 45 mg enteric-coated capsule with 500 mg CA and 100 mg LLC ([…]), SC430, mean, read-out: Tmax (converted)
  Tmax: 1.67 h
female, beagle, dog, plasma, po, 45 mg, PO 45 mg enteric-coated capsule with 500 mg CA and 100 mg LLC, SC430, calculated from IV PK data of SC431, mean, read-out: % F
  bioavailability: 15.5%
female, beagle, dog, plasma, po, 45 mg, Study 2 (SC430), 45 mg Formulated enteric coated capsule (500 mg citric acid, 100 mg LLC), oral, dogs, N=5, mean (% CV), based on that study's IV arm, read-out: % F
  bioavailability: 15.5%
female, beagle, dog, plasma, po, 45 mg, Study 2 (SC430), 45 mg Formulated enteric coated capsule (500 mg citric acid, 100 mg LLC), oral, dogs, N=5, mean (% CV), read-out: Tmax (converted)
  Tmax: 1.67 h
female, beagle, dog, plasma, po, 45 mg, Study 2 (SC430), 45 mg Formulated enteric coated capsule (500 mg citric acid, 100 mg LLC), oral, dogs, N=5, mean (% CV), sampling 24 h, read-out: AUC(0-t)
  AUC(0-t): 574 ng·h/mL
female, beagle, dog, plasma, po, 45 mg, Study 2 (SC430), 45 mg Formulated enteric coated capsule (500 mg citric acid, 100 mg LLC), oral, dogs, N=5, mean (% CV), sampling 24 h, read-out: Cmax
  Cmax: 177 ng/mL
[1]
  concentration at 0 min: 0 ng/mL
  concentration at 0.3 min: 0 ng/mL
  concentration at 0.7 min: 0 ng/mL
  concentration at 24 min: 0 ng/mL
[2]
  concentration at 0 min: 0 ng/mL
  concentration at 0.3 min: 0 ng/mL
  concentration at 0.7 min: 0 ng/mL
  concentration at 24 min: 0 ng/mL
female, beagle, dog, plasma, po, 45 mg, Tigecycline Plasma Concentration, Time (min) 1.0, PO 45 mg enteric-coated capsule with 500 mg CA and 100 mg LLC, SC430, mean
  concentration at 1 min: 56.4 ng/mL
female, beagle, dog, plasma, po, 45 mg, Tigecycline Plasma Concentration, Time (min) 1.3, PO 45 mg enteric-coated capsule with 500 mg CA and 100 mg LLC, SC430, mean
  concentration at […]: 58.3 ng/mL
female, beagle, dog, plasma, po, 45 mg, Tigecycline Plasma Concentration, Time (min) 1.7, PO 45 mg enteric-coated capsule with 500 mg CA and 100 mg LLC, SC430, mean
  concentration at […]: 101 ng/mL
female, beagle, dog, plasma, po, 45 mg, Tigecycline Plasma Concentration, Time (min) 2.0, PO 45 mg enteric-coated capsule with 500 mg CA and 100 mg LLC, SC430, mean
  concentration at 2 min: 144 ng/mL
female, beagle, dog, plasma, po, 45 mg, Tigecycline Plasma Concentration, Time (min) 2.3, PO 45 mg enteric-coated capsule with 500 mg CA and 100 mg LLC, SC430, mean
  concentration at […]: 108 ng/mL
female, beagle, dog, plasma, po, 45 mg, Tigecycline Plasma Concentration, Time (min) 2.7, PO 45 mg enteric-coated capsule with 500 mg CA and 100 mg LLC, SC430, mean
  concentration at […]: 98.6 ng/mL
female, beagle, dog, plasma, po, 45 mg, Tigecycline Plasma Concentration, Time (min) 3.0, PO 45 mg enteric-coated capsule with 500 mg CA and 100 mg LLC, SC430, mean
  concentration at 3 min: 76.5 ng/mL
female, beagle, dog, plasma, po, 45 mg, Tigecycline Plasma Concentration, Time (min) 3.3, PO 45 mg enteric-coated capsule with 500 mg CA and 100 mg LLC, SC430, mean
  concentration at […]: 68.7 ng/mL
female, beagle, dog, plasma, po, 45 mg, Tigecycline Plasma Concentration, Time (min) 3.7, PO 45 mg enteric-coated capsule with 500 mg CA and 100 mg LLC, SC430, mean
  concentration at […]: 62 ng/mL
female, beagle, dog, plasma, po, 45 mg, Tigecycline Plasma Concentration, Time (min) 4.0, PO 45 mg enteric-coated capsule with 500 mg CA and 100 mg LLC, SC430, mean
  concentration at 4 min: 51.7 ng/mL
female, beagle, dog, plasma, po, 45 mg, Tigecycline Plasma Concentration, Time (min) 4.5, PO 45 mg enteric-coated capsule with 500 mg CA and 100 mg LLC, SC430, mean
  concentration at […]: 48.9 ng/mL
female, beagle, dog, plasma, po, 45 mg, Tigecycline Plasma Concentration, Time (min) 5.0, PO 45 mg enteric-coated capsule with 500 mg CA and 100 mg LLC, SC430, mean
  concentration at 5 min: 50.6 ng/mL
female, beagle, dog, plasma, po, 45 mg, Tigecycline Plasma Concentration, Time (min) 5.5, PO 45 mg enteric-coated capsule with 500 mg CA and 100 mg LLC, SC430, mean
  concentration at […]: 42.5 ng/mL
female, beagle, dog, plasma, po, 45 mg, Tigecycline Plasma Concentration, Time (min) 6.0, PO 45 mg enteric-coated capsule with 500 mg CA and 100 mg LLC, SC430, mean
  concentration at 6 min: 35.2 ng/mL
female, beagle, dog, plasma, po, 45 mg, Tigecycline Plasma Concentration, Time (min) 8.0, PO 45 mg enteric-coated capsule with 500 mg CA and 100 mg LLC, SC430, mean
  concentration at 8 min: 22.9 ng/mL
female, beagle, dog, plasma, po, 45 mg, Tigecycline Plasma Concentration, Time (min) 10.0, PO 45 mg enteric-coated capsule with 500 mg CA and 100 mg LLC, SC430, mean
  concentration at 10 min: 16.8 ng/mL
female, beagle, dog, plasma, po, 45 mg, target dose 45 mg, enterically coated capsule, read-out: Observed Mean Cmax
  Cmax: 177 ng/mL
female, beagle, dog, plasma, po, 45 mg, target dose 45 mg, enterically coated capsule, time scale adjusted to 4 hours, read-out: Observed AUC(0-t)
  AUC(0-t): 266 ng·h/mL
female, beagle, dog, plasma, po, all studied oral formulations, read-out: Tmax, mean (converted)
  Tmax: ~1.67 h
Target dose 30 mg
  Predicted AUC(0-t), % Difference: −23.9%
  Predicted Mean Cmax, % Difference: −24.8%
  Predicted AUC(0-t): 265 ng·h/mL
  Predicted Mean Cmax: 151 ng/mL
Target dose 45 mg
  Predicted AUC(0-t), % Difference: −49.4%
  Predicted Mean Cmax, % Difference: −28.0%
  Predicted AUC(0-t): 398 ng·h/mL
  Predicted Mean Cmax: 226 ng/mL
